As usually defined, the IC50 is the point on the concentration scale where inhibition reaches its midpoint.

Format in all cases: cell-based
Assay [1] has as its system m^6 A in cellular mRNA of MOLM-13 cells. Kind of assay: m^6 A-mRNA LC-MS/MS assay (m^6 A cellular assay). The following applies: Homo sapiens, 24 hours incubation, LC-MS/MS of m^6 A/A in mRNA. The method, boiled down:
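MOLM-13 cells in RPMI 1640 with 10% FBS dosed 24 h at 37° C. with 8-point, 4-fold series from 25 μM to 1.5 nM, 0.25% DMSO. Extracted mRNA digested to nucleosides and quantified by LC-MS/MS against standards; result expressed as 100*(m^6 A/A).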

The test system of assay [2] is MOLM-13 cells. Briefly: MOLM-13 96 Hour cell proliferation assay (Cell Titer-Glo). The following applies: Homo sapiens. The method in brief:
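MOLM-13 cells were seeded at 600 cells/well in RPMI 1640 with 10% FBS, then incubated overnight. Compounds were added at 0.25% DMSO final for 96 h at 37° C, with CellTiter-Glo luminescence read-out. Values normalized to staurosporine (100% death) and DMSO (0%); IC50 from 4-parameter logistic fit.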
In general terms: In ATP-based viability assays light output follows the ATP content of the culture.

For assay [3], the system named is MOLM-13 cells. Kind of assay: MOLM-13 48 Hour cell proliferation assay (Cell Titer-Glo). The following applies: Homo sapiens. Here is the method:
MOLM-13 48 Hour Cell Proliferation Assay
MOLM-13 (DSMZ) cells were seeded at 1000 cells per well in a volume of 44 μL in a Falcon 384-well tissue culture treated clear bottom microplate in RPMI 1640 media containing 10% fetal bovine serum using a Multidrop Combi (ThermoFisher Scientific). Cells were incubated overnight at 37° C. in a humidified tissue culture incubator. The Mosquito® HTS Liquid Handler was used to make a compound/media intermediate plate by aliquoting […] of compound from the initial compound dilution plate (concentrations ranging from 10.0 mM to 38.0 nM in 100% DMSO) into a V bottom 384-well screen matrix plate containing 49 µL of media containing the appropriate serum (50-fold dilution, 2% DMSO). The Apricot liquid handling system was used to transfer […] compounds from the intermediate plate into the Falcon 384-well tissue culture plate containing 44 μL cells (10-point, 4-fold dilution spanning concentrations 25.0 μM to […], 0.25% DMSO final), and placed in a humidified tissue culture incubator at 37° C. After 48 hours, 25 μL of Cell Titer-Glo reagent (Promega) was added to each well using a Multidrop Combi. The plate was protected from light and placed on an IKA plate shaker for at 300 rpm for 10 minutes at room temperature. The plate was read on an EnVision plate reader (Perkin Elmer) using the Ultra Sensitive Luminescence protocol. Data analysis was performed by normalizing the raw luminescence units to an average of the positive control values for staurosporine (100% cell death) and the negative control values for DMSO (0% cell death). An IC50 was calculated using a 4-parameter logistic nonlinear regression model in GraphPad Prism.

With `CNc1ccc2ccc(OCc3cncc(-n4cc(-c5ccc(C)o5)c5c(N)ncnc54)c3)cc2n1` [Compound I-234], the IC50 in assay [1] and in assay [2] was 1000 to 10000 nM in each case.

`CCc1cc(NCCCN(C)C)c2ccc(CCc3cncc(-n4ccc5c(N)ncnc54)c3)cc2n1` [Compound I-127]: the IC50 in assay [2] was ≥ 10000 nM.

Take `Nc1ncnc2c1c(C1CCCO1)cn2-c1cncc(CCc2ccc3ccc(N4CCC4)nc3c2)c1` (stereo not shown) [Compound I-126]: the IC50 in assay [1] and in assay [2] was 1000 to 10000 nM in each case.

As to `CCc1cc(NC)c2ccc(CCc3cncc(-n4cc(-c5ccn(C)n5)c5c(N)ncnc54)c3)cc2n1` [Compound I-122], the half-maximal inhibitory concentration (IC50) in assay [2] was < 1000 nM.

As for `CNc1ccc2ccc(OCc3cncc(-n4cc([C@H]5CCCO5)c5c(N)ncnc54)c3)cc2n1` [Compound I-112], the half-inhibitory concentration (IC50) was 1000 to 10000 nM in assay [1] and < 1000 nM in assay [2].

Consider `CNc1ccc2ccc(OCc3cncc(-n4cc(CC5CC5)c5c(N)ncnc54)c3)cc2n1` [Compound I-29], for which the values for the half-inhibitory concentration (IC50) in assay [1] and in assay [3] were 1000 to 10000 nM and < 1000 nM, respectively.

Consider `CCc1cc(NCCOC)c2ccc(CCc3cncc(-n4cc(-c5ccn(C)n5)c5c(N)ncnc54)c3)cc2n1` [Compound I-115], for which the IC50 in assay [1] and in assay [2] was < 1000 nM each time.

In the case of `CNc1ccc2ccc(OCc3cc(Br)cc(-n4cc(Cl)c5c(N)ncnc54)c3)cc2n1` [Compound I-75], the IC50 in assay [2] lay within 1000 to 10000 nM.

For `CNc1ccc2ccc(OCc3cncc(-n4cc(Cl)c5c(N)ncnc54)c3)cc2n1` [Compound I-74, 7-((5-(4-amino-5-chloro-7H-pyrrolo[2,3-d]pyrimidin-7-yl)pyridin-3-yl)methoxy)-N-methylquinolin-2-amine], the 50% inhibitory concentration (IC50) in assay [1], in assay [3] and in assay [2] was 1000 to 10000 nM each time.

Take `CNc1ccc2cc(CCc3cccc(-n4cc(Cl)c5c(N)ncnc54)c3)ccc2n1` [Compound I-70]: the IC50 was ≥ 10000 nM in assay [1], 1000 to 10000 nM in assay [3] and 1000 to 10000 nM in assay [2].

As to `CNc1ccc2ccc(OCc3cncc(-n4cc(-c5ccnn5C)c5c(N)ncnc54)c3)cc2n1` [Compound I-35], the figures for the 50% inhibitory concentration (IC50) in assay [1] and in assay [3] were ≥ 10000 nM and < 1000 nM, respectively.

As for `CNc1ccc2ccc(OCc3cncc(-n4cc([C@@H]5CCCO5)c5c(N)ncnc54)c3)cc2n1` [Compound I-113], the IC50 is < 1000 nM in assay [1] and 1000 to 10000 nM in assay [2].

Take `CNc1ccc2ccc(OCc3cncc(-n4cc(C5CCCC5)c5c(N)ncnc54)c3)cc2n1` [Compound I-58]: the half-maximal inhibitory concentration (IC50) in assay [1] is 1000 to 10000 nM; in assay [3], < 1000 nM; in assay [2], < 1000 nM.

Compound `CNc1ccc2ccc(OCc3cncc(-n4cc(C(C)C5CC5)c5c(N)ncnc54)c3)cc2n1` (stereo not shown) [Compound I-120] had an IC50 in assay [2] of 1000 to 10000 nM.

`Cn1ccc(-c2cn(-c3cncc(CCc4ccc5cc(Br)c(N)nc5c4)c3)c3ncnc(N)c23)n1` [Compound I-123]: the IC50 in assay [2] lay within 1000 to 10000 nM.

Regarding `CNc1ccc2ccc(OCc3cccc(-n4cc(Cl)c5c(N)ncnc54)c3)cc2n1` [Compound I-87], the 50% inhibitory concentration (IC50) in assay [3] and in assay [2] was 1000 to 10000 nM throughout.

For the compound `CCc1cc(N2CCC(F)(F)CC2)c2ccc(OCc3cncc(-n4ccc5c(N)ncnc54)c3)cc2n1` [Compound I-118], the concentration for half-maximal inhibition (IC50) in assay [2] fell in the range of 1000 to 10000 nM.

As to `CCNc1ccc2ccc(OCc3cncc(-n4cc(-c5ccn(C)n5)c5c(N)ncnc54)c3)cc2n1` [Compound I-128], the half-inhibitory concentration (IC50) in assay [1] and in assay [2] was 1000 to 10000 nM each time.

Take `CNc1ccc2ccc(CCc3cncc(-n4ccc5c(N)ncnc54)c3)cc2n1` [Compound I-30]: the IC50 in assay [1] and in assay [3] was 1000 to 10000 nM in each case.

As for `Nc1nc2cc(OCc3cncc(-n4ccc5c(N)ncnc54)c3)ccc2cc1Br` [Compound I-111], the IC50 in assay [2] is ≥ 10000 nM.

In turn, `CNc1ccc2ccc(CCc3cncc(-n4cc(F)c5c(N)ncnc54)c3)cc2n1` [Compound I-116] came in with a half-maximal inhibitory concentration (IC50) in assay [2] of 1000 to 10000 nM.

With `CNc1ccc2ccc(OCc3cncc(-n4cc(-c5ncco5)c5c(N)ncnc54)c3)cc2n1` [Compound I-235], the IC50 in assay [2] is ≥ 10000 nM.

As for `CCc1cc(N(C)CCOC)c2ccc(CCc3cncc(-n4cc(-c5ccn(C)n5)c5c(N)ncnc54)c3)cc2n1` [Compound I-117], the 50% inhibitory concentration (IC50) in assay [1] and in assay [2] was < 1000 nM throughout.

`Cn1ccc(-c2cn(-c3cncc(CCc4ccc5ccc(N)nc5c4)c3)c3ncnc(N)c23)n1` [Compound I-114] displayed a concentration for half-maximal inhibition (IC50) in assay [2] of 1000 to 10000 nM.

For `C[C@@H]1CCN1c1ccc2ccc(OCc3cncc(-n4cc(C5CCCC5)c5c(N)ncnc54)c3)cc2n1` [Compound I-124], the IC50 in assay [2] was in the range of 1000 to 10000 nM.

In the case of `CCc1cc(N2CCNCC2)c2ccc(OCc3cncc(-n4cc(-c5ccn(C)n5)c5c(N)ncnc54)c3)cc2n1` [Compound I-121], the IC50 in assay [1] is 1000 to 10000 nM; in assay [2], < 1000 nM.

In turn, `CCNc1ccc2ccc(OCc3cccc(-n4cc(Cl)c5c(N)ncnc54)c3)cc2n1` [Compound I-61] displayed a concentration for half-maximal inhibition (IC50) in assay [2] of 1000 to 10000 nM.

Regarding `CNc1ccc2ccc(OCc3cncc(-n4c(C)cc5c(N)ncnc54)c3)cc2n1` [Compound I-36], the half-inhibitory concentration (IC50) in assay [1] and in assay [3] was 1000 to 10000 nM each time.

Consider `CNc1ccc2ccc(OCc3cc(CO)cc(-n4cc(Cl)c5c(N)ncnc54)c3)cc2n1` [Compound I-34], for which the half-inhibitory concentration (IC50) in assay [1] is ≥ 10000 nM; in assay [3], < 1000 nM.
